These results are taken from PMC3906421 (Journal of medicinal chemistry, 2013).

This test has as its target HIV-1 reverse transcriptase (RT35A, wild type) (Human immunodeficiency virus type 1 group M subtype B, UniProt P03366). Description: JDAM dual activity monitor RT activity assay. The class given is biochemical. As to conditions: for ligand efficiency: LE = -RTln(IC50)/NHA.

As for `CCOC(=O)c1cnn2ccccc12` [compound 1, ethyl pyrazolo[1,5-a]pyridine-3-carboxylate], the ligand efficiency stood at 0.34 kcal/mol●NHA. Consider `NCc1ccc(OC(F)(F)F)cc1` [compound 2, 4-(trifluoromethoxy)benzylamine], for which the “inhibition (in words)” value (at 1 mM, JDAM assay) was “no detectable inhibition”.

In turn, `Oc1ccc(OC(F)(F)F)cc1` [compound 3, 4-(trifluoromethoxy)phenol] came in with a ligand efficiency of 0.37 kcal/mol●NHA. In the case of `CN(CC(=O)N1CCCc2ccccc21)Cc1nc(=O)c2ccccc2[nH]1` [compound 8, 2-(((2-(3,4-dihydroquinolin-1(2H)-yl)-2-oxoethyl)(methyl)amino)methyl)quinazolin-4(1H)-one], the ligand efficiency is on record as 0.19 kcal/mol●NHA.
